Reference: US6037337A (priority 1994, dated 2000)

Columns and labels:
[1] = single dose; cited from earlier work
[2] = test system: non-tumor-bearing Fischer 344 rats; experiment: Lethality (non-tumor bearing), within 7-10 days after administration; format: in vivo, Fischer 344 rat
Protocol: Lethality (Non-Tumor Bearing)
The toxicity was assessed by lethality within 7-10 days after administration of (R)-, (S)-, or (R,S)-ifosfamide in non-tumor-bearing Fischer 344 rats.

[3] = test system: tumor-bearing F344 rats (MatB rat mammary carcinoma); experiment: Lethality (tumor-bearing), toxic deaths; format: in vivo; conditions: for toxic deaths (of animals treated): tumor-bearing
Protocol: (§1) In order to help clarify the relative efficacies and toxicities of (S)-IFF and (R)-IFF, the effect of these enantiomers in F344 rats was investigated. Both non-tumor-bearing animals and those bearing a MatB rat mammary carcinoma were used in this study. The relative lethality, bone marrow suppression, weight loss, antitumor activity, and pharmacokinetics were determined for (R)-IFF, (S)-TFF and (R,S)-IFF.
Animal Model and Tumor Cells
(§2) MatB cells are maintained in vitro in α-minimum essential medium (GIBCO, Grand Island, N.Y.) supplemented with 1.3% sodium pyruvate, 2.6% glutamine, 1.3% non-essential amino acids, 10% fetal calf serum, and 100 units/ml gentamicin. Cells are maintained at 37° C. under 5% CO2. A suspension of 5×10^5 cells is injected s.c. into the flanks of female F344 rats weighing 160-200 g. Within 7-10 days, when there is a palpable nodule, the rats are lightly anesthetized with ether, and a single i.v. dose of ifosfamide is injected via the tail vein. The tumor size and animal weights are monitored every other day. On the basis of the conventional rat human dose conversion factor of 1:7 and idealised human body weights and surface areas of 70 kg and 1.5 m^2, the dose of 100 mg/kg in the rat represents approximately 600 mg/m^2 in humans, which is in the general range of clinical single doses, as described by De Kraker, supra. Statistical analysis was performed using an impaired Student's s test or Pearson's .chi.^2 analysis.
There were differences resulting in the presence of a tumor in these animals with regard to the effects of these treatments, and the data are therefore presented for each situation separately.

[4] = cited from earlier work
[5] = CNS toxicity monitoring in 7 female cancer patients; format: in vivo, human; conditions: racemate 3 g/m^2, 3 h infusion, mesna
Protocol: (§3) In a first investigation, the stereoselective urinary excretion of the parent drug, i.e. racemic ifosfamide, and its metabolites, was investigated. This followed a single dose of ifosfamide in 7 female cancer patients, while monitoring for CNS toxicity.
(§4) Patients received a 3 h infusion of ifosfamide (3 g/m^2) with mesna uroprotection, total urine output was collected for 27 h, and urine samples were analysed by enantioselective gas chromatography, as described by Granvil et al, J.Chromatogr. 622:21-31 (1993).
Since ifosfamide was the sole anti-cancer drug administered for the first chemotherapy cycle, toxicity data were not confounded by the effects of other anti-neoplastic agents.

WBC = experiment: Bone marrow suppression, WBC counts; format: in vivo, Fischer (F344) rat; conditions: for myelosuppression (WBC): 1 week after 125 mg/kg i.v.
Protocol: (§5) FIGS. 1A and 1B show peripheral blood counts obtained in tumor-bearing rats that received saline or ifosfamide treatment. […] There were 3-5 animals in each group. The following abbreviations etc. apply:
(§6) Determination of Myelotoxicity
(§7) For the studies of myelotoxicity, at least three animals/groups had blood obtained by cardiac puncture with a 23-gauge needle. The samples were heparinized and both WBC and platelet counts were determined using a Coulter Counter.
(§8) Measurements were made prior to and 1 week after i.v. injection of 125 mg/kg of (R,S)-, (R)-, or (S)-ifosfamide. […] In the presence of a tumor, the effects of a colony-stimulating factor are evidenced by higher WBC even prior to drug administration. Because the WBC progressively rises over time with exposure to the tumor, the intergroup variation in absolute WBC relates to differences in time from tumor inoculation to baseline WBC measurement and then drug administration.

[6] = test system: childhood rhabdomyosarcoma (HxRh28); conditions: immunoincompetent female CBA/CaJ mice; cited from earlier work
platelets = experiment: Bone marrow suppression, platelet counts; format: in vivo, Fischer (F344) rat; conditions: for thrombocytopenia: 1 week after 125 mg/kg i.v.
Protocol: as §5, §6, §7, §8

[7] = Pharmacokinetics in rat plasma (GC-MS), AUC
[8] = Weight loss, every-other-day measurements; format: in vivo, F344 rat; conditions: 125 mg/kg
Protocol: as §2
Weight loss was determined by every-other-day measurements of groups of at least three rats.

[9] = test system: MatB rat mammary carcinoma; experiment: Antitumor efficacy in rats, enantiomer comparison; format: in vivo, Fischer (F344) rat; conditions: R-isomer; summary statement
Protocol: as §1
as §2, with “Statistical analysis was performed using an impaired Student's s test or Pearson's .chi.^2 analysis.” left out

[10] = Incubation with human liver microsomes, 2 and 3-dechlorometabolites by chiral assays; format: in vitro ADME; conditions: for 2 and 3-dechloro metabolites produced, R and S-ifosfamide incubated separately: separate enantiomers, compared with racemate results
[11] = Analysis of urine of 11 patients after 3 hour infusion of racemic ifosfamide; format: in vivo, human
Protocol: This is based on the results of the analysis of the urine of 11 patients who received a 3 hour infusion of racemic ifosfamide. Patients had not received chemotherapy for a year and ifosfamide was the only drug administered during the pharmacokinetic study.

[12] = CBA/CaJ mice; cited from earlier work
[13] = Stereoselective urinary excretion of ifosfamide and metabolites in 7 female cancer patients; format: in vivo, human; conditions: patient with severe neurotoxicity vs 6 others
Protocol: as §3, §4
In patients with excessive N-dechloroethylation, R-ifosfamide could have an improved efficacy/toxicity.

[14] = test system: MatB subline selected for resistance to nitrogen mustards; experiment: Melphalan resistance of MatB subline in vivo; set-up: species or system rat

SMILES: O=P1(NCCCl)OCCCN1CCCl (racemic) [(R,S)-IFF, ifosfamide, reference compound]
- compound metabolised through the N-dechloroethylation pathway [1]: 15-50%
- drug excreted unchanged [1]: 20-40%
- lethality (rats dead of rats treated) ([2]; 150 mg/kg): 2 of 4
- lethality (rats dead of rats treated) ([2]; 100 and 125 mg/kg): 1 of 5
- toxic deaths (of animals treated) ([3]; 100 mg/kg): 0 of 5
- toxic deaths (of animals treated) ([3]; 125 mg/kg): 4 of 10
- toxic deaths (of animals treated) ([3]; 150 mg/kg): 5 of 5
- CNS side-effects ([4]; oral formulation): major dose-limiting side-effect
- dose at which CNS side-effects appeared, oral versus iv ([4]; oral vs iv): much lower dose
- chloroacetaldehyde levels after oral dosing ([4]; oral): higher levels of chloroacetaldehyde
- metabolism after oral dosing ([4]; oral): much more metabolism
- severe neurotoxic syndrome (patients) ([5]; 7 female patients): One patient had a severe neurotoxic syndrome
- neurotoxic symptoms ([5]; one patient): somnolence, dizziness, lethargy, tremors, and hallucinations
- myelosuppression (WBC) (WBC; tumor-bearing rats): significant myelosuppression
- myelosuppression (WBC) (WBC; tumor-free rats): myelosuppression is observed
- efficacy against HxRh28 xenograft, difference between stereoisomers [6]: no statistically significant differences
- thrombocytopenia (platelets; non-tumor-bearing rats): significant thrombocytopenia

SMILES: O=[P@]1(NCCCl)OCCCN1CCCl [(R)-IFF, dexifosfamide]
- clearance compared to (S)-IFF ([7]; rat): cleared more quickly
- AUC, AUCRS versus AUCR ([7]; rat plasma, 100 mg/kg i.v.): no statistically significant difference
- AUC, AUCR versus AUCS ([7]; rat plasma, 100 mg/kg i.v., P<0.01): statistically significant differences
- metabolism via the activation pathway, compared to (S)-IFF ([7]; rat, inferred from AUC): metabolized to a greater degree
- lethality (rats dead of rats treated) ([2]; 150 mg/kg): 2 of 4
- lethality (rats dead of rats treated) ([2]; 100 and 125 mg/kg, listed as (R)-ifosfamide): 1 of 5
- weight loss [8]: appears greatest
- weight loss, statistical significance [8]: significantly so only at one time point
- toxic deaths, compared to (R,S)-IFF ([3]; 125 mg/kg, chi-square): no difference
- toxic deaths, (R)-IFF compared to (S)-IFF ([3]; 125 mg/kg, chi-square, P=0.017): significant difference
- toxic deaths, (R)-IFF versus either (S)-IFF or (R,S)-IFF ([3]; 150 mg/kg, P=0.067): no significant difference
- toxic deaths (of animals treated) ([3]; 100 mg/kg): 1 of 5
- toxic deaths (of animals treated) ([3]; 125 mg/kg): 5 of 10
- toxic deaths (of animals treated) ([3]; 150 mg/kg): 5 of 5
- effectiveness in treating the tumors in the rats [9]: trend to the R-isomer being more effective
- 2 and 3-dechloro metabolites produced, R and S-ifosfamide incubated separately [10]: broadly the same
- myelotoxicity in the Fischer rat (WBC; summary statement): more myelotoxic
- myelosuppression (WBC) (WBC; tumor-bearing rats): significant myelosuppression
- myelosuppression (WBC) (WBC; tumor-free rats): myelosuppression is observed
- efficacy against HxRh28 xenograft, difference between stereoisomers [6]: no statistically significant differences
- platelet suppression compared to (R,S)- or (S)-ifosfamide (platelets; non-tumor-bearing rats, 125 mg/kg i.v., P<0.05): greater platelet suppression
- thrombocytopenia (platelets; non-tumor-bearing rats): significant thrombocytopenia

SMILES: O=[P@@]1(NCCCl)OCCCN1CCCl [(S)-IFF, levoifosfamide]
- metabolism via N-dechloroethylation, compared to (R)-IFF ([7]; stated with the rat AUC results): metabolized to a greater extent
- lethality (rats dead of rats treated) ([2]; 150 mg/kg): 0 of 4
- lethality (rats dead of rats treated) ([2]; 100 and 125 mg/kg, listed as (S)-ifosfamide): 0 of 5
- origin of side-chain metabolites in urine [11]: side-chain metabolites come from S-ifosfamide more than from R-ifosfamide
- plasma pharmacokinetics, differences [12]: No statistically significant differences
- toxic deaths, compared to (R,S)-IFF ([3]; 125 mg/kg, chi-square): no difference
- toxic deaths (of animals treated) ([3]; 100 mg/kg): 0 of 5
- toxic deaths (of animals treated) ([3]; 125 mg/kg): 2 of 10
- toxic deaths (of animals treated) ([3]; 150 mg/kg, listed as (S)-ifosfamide): 3 of 5
- excretion of dechloroethylated metabolites from S-ifosfamide [13]: much higher excretion
- 2 and 3-dechloro metabolites produced, compared to R-ifosfamide ([10]; racemic ifosfamide incubated): greater amounts
- 2 and 3-dechloro metabolites produced, R and S-ifosfamide incubated separately [10]: broadly the same
- myelosuppression (WBC) (WBC; tumor-bearing rats): no such effect after (S)-IFF where the WBC is higher
- myelosuppression (WBC) (WBC; tumor-free rats): not statistically significant
- efficacy against HxRh28 xenograft, difference between stereoisomers [6]: no statistically significant differences
- thrombocytopenia (platelets; non-tumor-bearing rats): significant thrombocytopenia
- platelet suppression compared to (R)- or (R,S)-ifosfamide (platelets; tumor-bearing rats, 125 mg/kg i.v.): significantly less

SMILES: N[C@@H](Cc1ccc(N(CCCl)CCCl)cc1)C(=O)O [melphalan]
- resistance to melphalan [14]: at least 4 fold
